Test system: non-treatment-seeking individuals with AUD
Experiment: Phase 1b study: intravenous alcohol administration (IV-A) challenge, with post-hoc BDI analysis
Assay type: in vivo, human
Settings: for Response to Alcohol Challenge (alcohol-induced stimulation, positive affect, negative affect, liking, wanting): post-hoc, subjects with higher BDI scores at baseline, vs placebo and vs lower BDI subjects
Experimental: Infusion was performed by the study nurse under the supervision of the study physician using a 6% alcohol IV infusion. An alcohol infusion nomogram provides a formula for obtaining the rate of infusion based on the participant's gender and weight. Thus, male participants' were infused at a rate determined by the following formula: 0.166-ml/minute×weight in kilogram while the rate of infusion for female participants was calculated as 0.126-ml/minute×weight in kilograms.
Breath alcohol content (BrAC) was monitored every 3 to 5 minutes during infusion until target BrAC's of 0.02 g·dl, 0.04 g·dl, 0.06 g·dl, and 0.08 g·dl were obtained, following which infusion rates were reduced to half the original rate to maintain stable BrAC levels during the testing phase. The following parameters were assessed prior to intravenous alcohol challenge and again at each target BrAC: (1) Biphasic Alcohol Effects Scale (BAES) to obtain a reliable and valid measure of alcohol's stimulant and sedative effects; (2) Alcohol Urge Questionnaire (AUQ)—an 8-item scale where subjects rate their craving for alcohol at the present moment, which is appropriate for examining the level of the urge to drink alcohol; (3) Alcohol Ratings Scale, which captures “liking” and “wanting” of alcohol”; (4) The Profile of Mood States (POMS; McNair 1971) which was used to record positive and negative mood states; and (5) Heart Rate and Blood Pressure levels measure at baseline and at each target level of BrAC.
To probe the possible relationship between MN-166, mood, and subjective responses to alcohol, further analysis was performed. The following variables were explored in all participants: • 1. Baseline scores for depressive symptomology (as measured by the Beck Depression Inventory (BDI)) were collected. • 2. Responses to Alcohol Challenge (e.g., alcohol-induced stimulation, positive affect, negative affect, “liking,” and “wanting”) were compared between subjects with higher BDI scores (more depressive symptomology) and dysphoria and subjects with lower BDI scores (less depressive symptomology) and dysphoria.

## CC(C)C(=O)c1c(C(C)C)nn2ccccc12 [ibudilast, Ibudilast]
50 mg BID, day 6 IV alcohol
  subjective response to alcohol during the infusion: did not affect
Listed as MN-166
  Response to Alcohol Challenge (alcohol-induced stimulation, positive affect, negative affect, liking, wanting): less positive and more negative responses
Negative responses to alcohol
  Response to Alcohol Challenge (alcohol-induced stimulation, positive affect, negative affect, liking, wanting): more negative
Positive responses to alcohol
  Response to Alcohol Challenge (alcohol-induced stimulation, positive affect, negative affect, liking, wanting): less positive,
